Experimental data reported in publication PMC11662004 (Communications Chemistry, 2024).

Molecular target: T1, TET2CDΔLCI (Homo sapiens, UniProt Q6N021)
T1 construct: FLAG-[thrombin cleavage site]-SUMO (N); made in house; host or cells: E. coli
Assay: Continuous reaction monitoring (1H NMR), 2OG decarboxylation
Type: biochemical
Settings: for V0 TET2: 20 µM DNA, 100 μM 2OG, 5 μM TET2CDΔLCI; for Relative V0 TET2: relative to reactions without DNA
Description: Double-stranded DNA oligomers were added at a final concentration of 20 µM. Data plotted from two independent replicates (n = 2). Initial rates reported as the mean of two independent replicates (n = 2). TEXT PRINTED IN THE PICTURE: (c) No DNA: V0 (μM min^−1) NgTet1: 0.36; V0 (μM min^−1) TET2: 1.28; Relative V0 NgTet1: 1; Relative V0 TET2: 1 | (c) ^5HC DNA: V0 (μM min^−1) NgTet1: 1.30; V0 (μM min^−1) TET2: 6.34; Relative V0 NgTet1: 3.6; Relative V0 TET2: 5.0 | (c) AT DNA: V0 (μM min^−1) NgTet1: 0.82; V0 (μM min^−1) TET2: 5.78; Relative V0 NgTet1: 2.3; Relative V0 TET2: 4.5 | (c) ^5mC DNA: V0 (μM min^−1) NgTet1: 1.52; V0 (μM min^−1) TET2: 6.79; Relative V0 NgTet1: 4.2; Relative V0 TET2: 5.3
All ^1H NMR spectra were recorded at 25 °C using D2O as a reference for internal deuterium lock on a Bruker Avance III 700 MHz equipped with an inverse TCI cryoprobe in 3 or 5 mm diameter tubes with a total sample volume of 160 or 565 μL, respectively. The water signal was reduced using Perfect Echo excitation sculpting suppression. Chemical shifts are reported in ppm relative to D2O (δH = 4.70 ppm).
Spectrometer settings were determined using a control sample containing all reaction components excluding enzyme. TET enzyme was added to an identical sample, and the resulting assay mixture was transferred to an NMR tube before deposition into the instrument. […] Data acquisition was started following a brief spectrometer setting optimisation (up to 200 s delay between enzyme addition and data acquisition); 8–32 scans were accumulated for a single spectrum, corresponding to 65–179 s of acquisition time. Spectrum recordings were carried out consecutively without delay. Data were processed using automated routines on MestReNova v14.2.0; signals of interest were integrated with absolute intensity scaling. ^1H NMR time courses reported in figures are representative results from two or three independent replicates.

[1] = n = 1, time (min) 5HC DNA 5.78333, AT DNA 5.73333, 5mC DNA 5.58333
[2] = n = 1, time (min) 5HC DNA 8.86667, AT DNA 8.81667, 5mC DNA 8.65
[3] = n = 1, time (min) 5HC DNA 11.95, AT DNA 11.8833, 5mC DNA 11.7333
[4] = n = 1, time (min) 5HC DNA 15.0333, AT DNA 14.9667, 5mC DNA 14.8167
[5] = n = 1, time (min) 5HC DNA 18.1167, AT DNA 18.05, 5mC DNA 17.9
[6] = n = 1, time (min) 5HC DNA 21.2333, AT DNA 21.1333, 5mC DNA 21
[7] = n = 1, time (min) 5HC DNA 24.3333, AT DNA 24.2167, 5mC DNA 24.0667
[8] = n = 1, time (min) 5HC DNA 27.4167, AT DNA 27.3, 5mC DNA 27.15
[9] = n = 1, time (min) 5HC DNA 30.55, AT DNA 30.3833, 5mC DNA 30.2333
[10] = n = 1, time (min) 5HC DNA 33.65, AT DNA 33.4667, 5mC DNA 33.3167
[11] = n = 1, time (min) 5HC DNA 36.7333, AT DNA 36.5333, 5mC DNA 36.4
[12] = n = 1, time (min) 5HC DNA 39.8333, AT DNA 39.6167, 5mC DNA 39.4833
[13] = n = 1, time (min) 5HC DNA 42.9, AT DNA 42.7, 5mC DNA 42.5667
[14] = n = 1, time (min) 5HC DNA 46, AT DNA 45.7833, 5mC DNA 45.6667
[15] = n = 1, time (min) 5HC DNA 49.0833, AT DNA 48.8667, 5mC DNA 48.75
[16] = n = 1, time (min) 5HC DNA 52.1667, AT DNA 51.95, 5mC DNA 51.8333
[17] = n = 1, time (min) 5HC DNA 55.25, AT DNA 55.0333, 5mC DNA 54.9167
[18] = n = 1, time (min) 5HC DNA 58.3167, AT DNA 58.1167, 5mC DNA 58
[19] = n = 1, time (min) 5HC DNA 61.4, AT DNA 61.2667, 5mC DNA 61.1
[20] = n = 2, time (min) 5HC DNA 5.66667, AT DNA 5.66667, 5mC DNA 5.8
[21] = n = 2, time (min) 5HC DNA 8.75, AT DNA 8.75, 5mC DNA 8.88333
[22] = n = 2, time (min) 5HC DNA 11.8333, AT DNA 11.85, 5mC DNA 11.9667
[23] = n = 2, time (min) 5HC DNA 14.9167, AT DNA 14.9333, 5mC DNA 15.05
[24] = n = 2, time (min) 5HC DNA 18.0167, AT DNA 18.0167, 5mC DNA 18.1167
[25] = n = 2, time (min) 5HC DNA 21.1, AT DNA 21.1, 5mC DNA 21.2
[26] = n = 2, time (min) 5HC DNA 24.1833, AT DNA 24.1667, 5mC DNA 24.2833
[27] = n = 2, time (min) 5HC DNA 27.25, AT DNA 27.25, 5mC DNA 27.3667
[28] = n = 2, time (min) 5HC DNA 30.3333, AT DNA 30.3333, 5mC DNA 30.45
[29] = n = 2, time (min) 5HC DNA 33.4167, AT DNA 33.4167, 5mC DNA 33.5333
[30] = n = 2, time (min) 5HC DNA 36.5, AT DNA 36.5, 5mC DNA 36.6167
[31] = n = 2, time (min) 5HC DNA 39.5833, AT DNA 39.5833, 5mC DNA 39.7
[32] = n = 2, time (min) 5HC DNA 42.6667, AT DNA 42.6667, 5mC DNA 42.7833
[33] = n = 2, time (min) 5HC DNA 45.75, AT DNA 45.75, 5mC DNA 45.8667
[34] = n = 2, time (min) 5HC DNA 48.8333, AT DNA 48.8333, 5mC DNA 48.95

Substance	V0 TET2 [µM/min]	succinate [1] [µM]	succinate [2] [µM]	succinate [3] [µM]	succinate [4] [µM]	succinate [5] [µM]	succinate [6] [µM]	succinate [7] [µM]	succinate [8] [µM]	succinate [9] [µM]	succinate [10] [µM]	succinate [11] [µM]	succinate [12] [µM]	succinate [13] [µM]	succinate [14] [µM]	succinate [15] [µM]	succinate [16] [µM]	succinate [17] [µM]	succinate [18] [µM]	succinate [19] [µM]	also measured
5HC DNA: non-methylated DNA of the same sequence, 5'-ACC ACC GGT GGT-3', non-substrate (DNA ACCACCGGTGGT; DNA, backbone not given here)	6.34	44.3007	54.4828	59.3102	61.4847	65.1131	67.3764	68.0997	69.3831	70.6241	71.0252	71.8004	71.1327	71.8764	73.8393	72.8966	73.2704	74.052	74.0256	74.622	succinate [20]: 46.0808 µM; succinate [21]: 55.6216 µM; succinate [22]: 60.916 µM; succinate [23]: 64.6085 µM; succinate [24]: 67.8421 µM; succinate [25]: 69.2588 µM; succinate [26]: 70.2836 µM; succinate [27]: 71.3409 µM; succinate [28]: 71.8731 µM; succinate [29]: 71.8297 µM; succinate [30]: 74.102 µM; succinate [31]: 75.5956 µM; succinate [32]: 75.7723 µM; succinate [33]: 76.9891 µM; succinate [34]: 76.9274 µM; Relative V0 TET2: 5.0
AT DNA: double-stranded self-complementary 5'-ACC ACA TGT GGT-3', CpG replaced by ApT (DNA ACCACATGTGGT; DNA, backbone and methylation of C not given here; self-complementary duplex)	5.78	39.5956	49.5065	54.2458	57.9674	59.2828	62.1944	62.9572	64.7984	64.7023	65.163	66.9776	66.6376	66.8738	68.072	67.0651	67.7938	69.134	67.5356	68.2246	succinate [20]: 40.358 µM; succinate [21]: 49.4783 µM; succinate [22]: 54.4351 µM; succinate [23]: 56.62 µM; succinate [24]: 59.0171 µM; succinate [25]: 60.9868 µM; succinate [26]: 62.4531 µM; succinate [27]: 63.5112 µM; succinate [28]: 64.7948 µM; succinate [29]: 64.9179 µM; succinate [30]: 65.839 µM; succinate [31]: 65.6357 µM; succinate [32]: 67.3494 µM; succinate [33]: 68.1347 µM; succinate [34]: 66.7934 µM; Relative V0 TET2: 4.5
